Entries after “also recorded” stand apart in the source; their conditions may differ.

Consider 2 compounds from US20110110916A1, “METHODS FOR TREATING AND/OR PREVENTING CARDIOMYOPATHIES BY ERK OR JNK INHIBITION” (priority 2008, published 2011).

Common to all, as to format: in vivo, mouse
In assay [1] the test system is ERK1/2. Briefly: Immunoblot of phosphorylated ERK1/2 versus total ERK1/2 in hearts of treated mice. As to the method: (§1) Hearts were excised from mice at 16-weeks of age and were homogenized in RIPA extraction buffer (Cell Signalling) containing protease inhibitors (25 […]). Protein samples were subjected to SDS-PAGE, transferred to nitrocellulose membranes and blotted with primary antibodies against ERK1/2 (Santa-Cruz), phosphorylated ERK1/2 (Cell Signaling), JNK (Santa-Cruz), natriuretic peptide precursor A (Santa-Cruz), phosphorylated JNK (Cell Signaling), and Gapdh (Ambion). Secondary antibodies were HRP-conjugated (Amersham). Recognized proteins were visualized by enhanced chemiluminescence (ECL, Amersham). The signal generated using an antibody against Gapdh was used as internal controls to normalize the amounts of protein between immunoblots.
We assessed the efficacy of the chemical entities in inhibiting their targets in the heart by immunoblot using anti-total ERK1/2 (Santa Cruz) and anti-pERK1/2 (Cell Signaling) antibodies.
(§2) Proteins were loaded on 10% SDS gels and electrotransferred on a […] pore size nitrocellulose membrane (Invitrogen). We used antibodies directed against phosphorylated ERK1/2 (Cell Signaling, 1:1,000), total ERK1/2 (Santa Cruz, 1:2,000), phosphorylated JNK (Cell Signaling, 1:1,000) and total JNK (Santa Cruz, 1:200). The secondary antibodies were coupled to horseradish-peroxydase (Amersham). Recognized proteins were visualized by enhanced chemiluminescence (SuperSignal® West Pico chemiluminescent substrate, Thermo Scientific).
In general terms: Immunoblotting shows a protein as a band on a membrane.

Assay [2] deals with Lmna^H222P/H222P mice. Briefly: Deaths during the 4-week treatment protocol. The conditions noted are these: 4-week treatment from 16 weeks; PD98059 n=22, SP600125 n=29; DMSO 6 of n=28. From the text: (§3) We assigned male Lmna^H222P/H222P mice 16 weeks of age to 3 different treatment arms (placebo DMSO, n=28; MEK1/2 inhibitor PD98059, n=22; JNK inhibitor SP600125, n=29) and examined parameters of cardiac structure and function at 20 weeks of age, after 4 weeks treatment. […] Lmna^H222P/H222P mice also have depressed cardiac contractility, with fractional shortening (FS) decreased by 20%-40% compared to Lmna^+/+ mice (13,15). Myocardial fibrosis occurs in Lmna^H222P/H222P mice at 16 weeks of age (16). At 20 weeks, LVEDD and LVESD increase further in Lmna^H222P/H222P mice and cardiac contractility also progressively deteriorates (16). During the 4-week treatment protocol, 6 mice in the DMSO group, 3 in the PD98059 group and 3 in the SP600125 group died prior to reaching 20 weeks of age for evaluation.

In assay [3] the test system is JNK. Briefly: Immunoblot of phosphorylated JNK versus total JNK in hearts of treated mice. The settings on record: for phosphorylation of JNK / JNK signaling in heart: treated 8 to 16 weeks of age, 3 mg/kg/day i.p. Here is the method: as §1, §2
Assay [4] has as its system hearts from Lmna^H222P/H222P mice. Briefly: Histopathological analysis of hearts (left ventricle, cardiomyocyte nuclear length). The conditions noted are these: for mean lengths of nuclei in cardiomyocytes compared to the DMSO-treated group: 20 weeks of age, treated 16 to 20 weeks. Here is the method:
Mice were sacrificed at 16 weeks of age and freshly removed hearts were fixed in 4% formaldehyde for 48 hours, embedded in paraffin, sectioned at […] and stained with hematoxylin and eosin and Masson's trichrome. Representative stained sections were photographed using a Microphot SA (Nikon) light microscope attached to a Spot RT Slide camera (Diagnostic Instruments). Images were processed using Adobe Photoshop 6.0 (Adobe Systems). Length of cardiomyocytes was measured using Scion Image software (Scion Corporation). Data were reported as means±standard deviations and are compared with respective controls using a two-tailed t test.
Mice were sacrificed at 20 weeks of age, and freshly removed hearts were fixed in 4% formaldehyde for 48 hours, embedded in paraffin, sectioned at 5 μm and stained with hematoxylin, eosin and Gomori's trichrome and Syrius Red. Representative stained sections were photographed using a Microphot SA (Nikon) light microscope attached to a Spot RT Slide camera (Diagnostic Instruments) with a 10× objective. Images were processed using Adobe Photoshop CS (Adobe Systems).

The subject of assay [5] is Lmna^H222P/H222P mice. Briefly: Transthoracic echocardiography at 20 weeks of age, PD98059 or SP600125 from 16 to 20 weeks. The conditions noted are these: for LVESD compared to DMSO-treated mice: 3 mg/kg/day; for FS and EF: after 4 weeks of treatment; for HR: heart rate; for further deterioration in cardiac function: treated from 16 to 20 weeks of age. As to the method:
Using the methods described in Example 2, we treated Lmna^H222P/H222P mice with PD98059 alone or SP600125 alone, starting at 16 weeks of age, when ejection fraction has already deteriorated and left ventricular end diastolic diameter is increased, until 20 weeks of age.
SP600125, an anthrapyrazolone inhibitor of JNK, and PD98059, a 2′-amino-3′-methoxyflavone MAPK/ERK kinase (MEK) ½ inhibitor, (Calbiochem) were dissolved in dimethyl sulfoxide (DMSO) (Sigma) at a concentration of 1 mg/ml and were delivered to a dose of 3 mg/kg/day for 5 days a week. The placebo control consisted of DMSO alone and was delivered in the same volume. Placebo and inhibitors were administered by intraperitoneal injection using a 27⅝-gauge syringe. Treatments were started when mice were 16 weeks of age and continued until 20 weeks of age or when the mice were 19 weeks and continued until 24 weeks of age.
At 20 weeks or 24 weeks of age, mice were anesthetized with 1.5% isoflurane in O2 and placed on a heating pad (37° C.). Cardiac function was assessed by echocardiography with a Visualsonics Vevo 770 ultrasound with a 30 MHz transducer applied to the chest wall. Cardiac ventricular dimensions and fractional shortening (FS) were measured in 2D mode and M-mode three times in a modified short axis view for the number of animals indicated. A “blinded” echocardiographer (J.S.), unaware of the genotype or treatment, performed the examinations.
as §3

[6] abbreviates: 3 mg/kg/day from 16 to 20 weeks of age.
Setting [7] is: treated 8 to 16 weeks of age, 3 mg/kg/day i.p.
The mark [8] stands for this setting: pilot study, 24 week-old mice treated from 19 weeks.
[9] abbreviates: 20 weeks of age, 3 mg/kg/day i.p. from 16 to 20 weeks.
[10] abbreviates: 20 weeks of age, 3 mg/kg/day i.p. from 16 to 20 weeks, means ± SEM.
[11] abbreviates: Lmna^H222P/H222P mice at 20 weeks of age, treated from 16 to 20 weeks, means ± SEM.
[12] abbreviates: Lmna^H222P/H222P mice at 20 weeks of age, treated from 16 to 20 weeks, means ± standard deviations.
[13] abbreviates: Lmna^H222P/H222P mice at 20 weeks of age, treated from 16 to 20 weeks.

With `O=C1c2ccccc2-c2n[nH]c3cccc1c23` [SP600125, anthra[1,9-cd]pyrazol-6(2H)-one], in assay [1] (setting [6]), the “phosphorylation of ERK1/2 in hearts” value is reported as “not significantly inhibited”. The “phosphorylation of ERK1/2 in hearts” value in assay [1] (setting [7]) is reported as “did not block”. Also, the “mice that died prior to reaching 20 weeks of age” value in assay [2] is 3. The “phosphorylation of JNK in hearts” value in assay [3] (setting [6]) was “partially blocked”. The “phosphorylation of JNK in hearts” value in assay [3] (setting [8]) is recorded as “partially blocked”. Besides, the “phosphorylation of JNK / JNK signaling in heart” value in assay [3] is listed as “blocked”. Moreover, in assay [4], the “mean lengths of nuclei in cardiomyocytes compared to the DMSO-treated group” value is on record as “significantly shorter”. Besides, in assay [5] (setting [9]), the “LVEDD compared to DMSO-treated mice” value is “not significantly different” and the “LVESD compared to DMSO-treated mice” value is reported as “significantly smaller; also recorded: statistically significant reduction”. Besides, the EF in assay [5] (setting [10]) was 61.88%±1.66%. In addition, in assay [5] (20 weeks of age), the “FS and EF” value is on record as “increased”. In assay [5] (setting [11]), the EF was determined as 61.88 ± 1.66 %, the FS was determined as 33.11 ± 1.16 %, the LVEDD was determined as 3.73 ± 0.08 mm and the LVESD worked out at 2.67 ± 0.10 mm. In assay [5] (setting [12]), this compound gave an EF of 61.88 ± 8.46 %, an FS of 33.11 ± 5.92 %, an IVSD of 0.63 ± 0.07 mm and an LVEDD of 3.73 ± 0.42 mm. In assay [5] (setting [12]), this compound showed an LVESD of 2.67 ± 0.49 mm and an LVPW of 0.66 ± 0.09 mm. The compound further had an HR in assay [5] (setting [13]) of 363 beats per minute. The “further deterioration in cardiac function” value in assay [5] is “prevented further deterioration”.

As for `COc1cccc(-c2cc(=O)c3ccccc3o2)c1N` [PD98059, 2-(2-amino-3-methoxyphenyl)-4H-1-benzopyran-4-one], in assay [1] (setting [6]), the “phosphorylation of ERK1/2 in hearts” value was “partially blocked”. For the same compound, the “phosphorylation of ERK1/2 in hearts” value in assay [1] (setting [8]) is reported as “partially blocked”. Besides, the “phosphorylation of ERK1/2 in hearts” value in assay [1] (setting [7]) is recorded as “inhibited”. Moreover, the “mice that died prior to reaching 20 weeks of age” value in assay [2] stood at 3. Besides, the “phosphorylation of JNK in hearts” value in assay [3] (setting [6]) is reported as “not significantly inhibited”. Moreover, the “phosphorylation of JNK / JNK signaling in heart” value in assay [3] is given as “did not observe inhibition”. Also, the “abnormal elongation of cardiomyocyte nuclei” value in assay [4] (16 week-old mice, treated 8 to 16 weeks) is on record as “prevented”. Further, the “mean lengths of nuclei in cardiomyocytes compared to the DMSO-treated group” value in assay [4] was “significantly shorter”. In assay [5] (setting [9]), the “LVEDD compared to DMSO-treated mice” value is “not significantly different”, the “increase of EF compared to the DMSO-treated group” value is on record as “approximately 22%” and the “LVESD compared to DMSO-treated mice” value was “significantly smaller; also recorded: statistically significant reduction”. Moreover, in assay [5] (setting [10]), the EF is 65.46%±2.64%. Besides, the “FS and EF” value in assay [5] (20 weeks of age) is “increased”. In assay [5] (setting [11]), this compound displayed an EF of 65.46 ± 2.64 %, an FS of 35.91 ± 1.88 %, an LVEDD of 3.55 ± 0.11 mm and an LVESD of 2.41 ± 0.11 mm. For the same compound, in assay [5] (setting [12]), the EF was 65.46 ± 11.49 %, the FS was 35.91 ± 8.21 %, the IVSD is on record as 0.66 ± 0.05 mm and the LVEDD is listed as 3.55 ± 0.50 mm. In assay [5] (setting [12]), the LVESD is on record as 2.41 ± 0.50 mm and the LVPW was determined as 0.69 ± 0.08 mm. Moreover, the HR in assay [5] (setting [13]) came to 350 beats per minute. Further, the “further deterioration in cardiac function” value in assay [5] was “prevented further deterioration”.
